Measurements published in PubChem BioAssay (NCI).
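Briefly, cells in 96-well plates were exposed to five compound concentrations for 48 h, and endpoints were estimated by linear interpolation. GI50 is the concentration that inhibits growth by half. TGI denotes the concentration required for complete inhibition of growth.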

Tests used:
Experiment in all cases: NCI anticancer screen, dose series, 48 h
HT29 colon = test system: HT29 colon
T-47D breast = test system: T-47D breast
NCI-H460 lung = test system: NCI-H460 lung
COLO 205 colon = test system: COLO 205 colon
SK-MEL-2 melanoma = test system: SK-MEL-2 melanoma
RXF 393 renal = test system: RXF 393 renal
DU-145 prostate = test system: DU-145 prostate
LOX IMVI melanoma = test system: LOX IMVI melanoma
SR leukemia = test system: SR leukemia
A498 renal = test system: A498 renal

SMILES	GI50 (HT29 colon)	TGI (HT29 colon)	GI50 (T-47D breast)	TGI (T-47D breast)	GI50 (NCI-H460 lung)	TGI (NCI-H460 lung)	GI50 (COLO 205 colon)	TGI (COLO 205 colon)	GI50 (SK-MEL-2 melanoma)	TGI (SK-MEL-2 melanoma)	GI50 (RXF 393 renal)	TGI (RXF 393 renal)	GI50 (DU-145 prostate)	TGI (DU-145 prostate)	GI50 (LOX IMVI melanoma)	TGI (LOX IMVI melanoma)	TGI (SR leukemia)	TGI (A498 renal)	GI50 (A498 renal)	GI50 (SR leukemia)
COc1ccc2nc(C3=CN(C4OC(CO)C(O)C(O)C4O)C4C=CC=CC34)sc2c1 (configuration not stated)	59.9 µM	> 100 µM	45 µM	> 100 µM	> 100 µM	> 100 µM	27.2 µM	> 100 µM	38.8 µM	> 100 µM	34.6 µM	> 100 µM	38.8 µM	> 100 µM	19.4 µM	56.6 µM				
CCCCCCCCCCCCOC(=S)NC		33.1 µM				34 µM				28.1 µM		32.5 µM				27.4 µM	34.6 µM	41.5 µM		
CN(/C(=N\O)c1ccccc1)c1ccccc1		87.5 µM				> 100 µM		> 100 µM		70.1 µM						75.7 µM	75.4 µM			
C[C@@]1(CBr)C[C@@](C)(/C=C/Cl)[C@@H](Cl)C[C@H]1Cl		22.4 µM						28.1 µM		8.46 µM		27.9 µM				23.7 µM	16.9 µM	30.8 µM		
COC(=O)C1=C2CO[C@@H]3C[C@H]4C(C)(C)CCC[C@]4(C)C(=CC1)[C@]23C	48.4 µM	> 100 µM	41.5 µM	> 100 µM	51.1 µM	> 100 µM	28.2 µM	71 µM			50.9 µM	> 100 µM	44 µM	> 100 µM	36.4 µM	> 100 µM		> 100 µM	67.5 µM	
CC1CCC(C#N)(NOC2=NCCN2)CC1 (configuration not stated)	> 100 µM	> 100 µM			37.7 µM	> 100 µM	36 µM	> 100 µM	> 100 µM	> 100 µM	> 100 µM	> 100 µM	39.9 µM	> 100 µM	5.33 µM	20.2 µM	> 100 µM	> 100 µM	40.5 µM	38.7 µM
O/N=C1/C(=C/c2ccc(Cl)cc2)CCCC1C(NO)c1ccc(Cl)cc1 (configuration not stated)		36.6 µM				35.3 µM		42.3 µM		68.5 µM		29.6 µM						38.9 µM		
CC(C)(C)n1cc(-c2ccnc(NCCCNS(=O)(=O)c3ccc(Cl)cc3)c2)c(-c2cccc(O)c2)n1			1.82 µM	5.51 µM	1.94 µM	3.92 µM	1.66 µM	3.39 µM	1.92 µM	3.89 µM	1.46 µM	2.99 µM	2.75 µM	7.63 µM	1.73 µM	3.15 µM		3.72 µM	1.51 µM	
Nc1n[n+]([O-])c2cnccc2[n+]1[O-]		> 100 µM		> 100 µM		> 100 µM		> 100 µM		> 100 µM				> 100 µM		> 100 µM	> 100 µM			
COc1cc(C(=O)/C=C/c2c(-c3cccs3)nc3ccccn23)cc(OC)c1OC	2.09 µM	4.19 µM	1.72 µM	6.79 µM	1.42 µM	2.84 µM	1.77 µM	3.2 µM	2.27 µM	4.35 µM			1.9 µM	4.81 µM	1.87 µM	4.9 µM	> 100 µM	> 100 µM	0.987 µM	1.34 µM
CCc1ccccc1NC(=O)C1=C(C)NC(C)=C(C(=O)Nc2ccccc2CC)C1c1ccc(NC(C)=O)cc1		> 100 µM				> 100 µM		> 100 µM		70.1 µM		65 µM				44.2 µM				
CCC[CH2][Sn]1([CH2]CCC)[O]CC([CH2][Sn]([c]2ccccc2)([c]2ccccc2)[c]2ccccc2)[O]1 (configuration not stated)							10.4 µM	23 µM	10.9 µM	23.4 µM	3.21 µM	15.4 µM					> 100 µM			3.78 µM
CC(=O)OC1C/C(C)=C/[C@H](O)CC(C)/C=C/[C@@]2(C)CCC(C(C)(C)O)C12 (some centres not stated)		> 100 µM				> 100 µM		> 100 µM		> 100 µM		> 100 µM				> 100 µM	> 100 µM	> 100 µM		
COc1cc(CCC(=O)NS(=O)(=O)c2ccccc2)cc(OC)c1OC		> 100 µM				> 100 µM		> 100 µM		> 100 µM		> 100 µM				> 100 µM	> 100 µM	> 100 µM		
CN(C(=O)C1CC1)C1C2CN3CCC(O2)C13 (configuration not stated)		> 100 µM				> 100 µM		> 100 µM		> 100 µM		> 100 µM				> 100 µM		> 100 µM		
Clc1ccc2c(NCCN3CCN(c4ccnc(N5CCCC5)n4)CC3)ccnc2c1	1.34 µM	12.2 µM	2.01 µM	5.59 µM	3.25 µM	10.1 µM	1.63 µM	3.59 µM	2.61 µM	6.77 µM	1.42 µM	3.93 µM	5.71 µM	20.3 µM	1.72 µM	3.55 µM		8.51 µM	2.39 µM	
ClC1=C(Cl)C(Cl)=C(Cl)C1=Cc1ccc(Cl)cc1Cl	0.33 µM	6.4 µM	0.252 µM	1.3 µM			0.486 µM	2.25 µM	1.51 µM	4.49 µM	0.215 µM	0.477 µM	0.718 µM	3.52 µM	0.184 µM	0.384 µM		2.6 µM	1.27 µM	
CCOC(CN(C)C(=O)OCC(Cl)(Cl)Cl)OCC		> 100 µM				> 100 µM		> 100 µM				> 100 µM		> 100 µM		> 100 µM	> 100 µM			
Cc1cc(S(=O)(=O)Nc2nc3ccsc3c(=O)n2Cc2ccccc2)c(S)cc1Cl	43.7 µM	> 100 µM	52.4 µM	> 100 µM	23.6 µM	71 µM	37.5 µM	> 100 µM			44 µM	> 100 µM	34.6 µM	> 100 µM	31.1 µM	65.3 µM		49.3 µM	14.2 µM	
